Experimental data published in patent US9493478B2, “Fused ring compound containing furan or salt thereof and pharmaceutical composition comprising same” (YUHAN CORPORATION, priority 2012, dated 2016).

Columns and labels:
Format in all cases: biochemical
PI3K β (p110β/p85α)(h) = PI3K β (p110β/p85α)(h) (Homo sapiens, UniProt P42338); assay: Assay for phosphatidylinositol 3-kinase beta (PI3Kβ) activity, PI3K-HTRF kit; settings: TR-FRET; enzyme 0.725 μg/ml, 10 μM PIP2, 10 μM ATP
PI3Kα (p110α/p85α)(h) = PI3Kα (p110α/p85α)(h) (Homo sapiens, UniProt P42336); assay: Assay for phosphatidylinositol 3-kinase alpha (PI3Kα) activity, PI3K-HTRF kit; settings: TR-FRET; enzyme 0.3625 μg/ml, 10 μM PIP2, 10 μM ATP
PI3Kδ (p110δ/p85α)(h) = PI3Kδ (p110δ/p85α)(h) (Homo sapiens, UniProt O00329); assay: Assay for phosphatidylinositol 3-kinase delta (PI3Kδ) activity, PI3K-HTRF kit; settings: TR-FRET; enzyme 0.725 μg/ml, 10 μM PIP2, 10 μM ATP
PI3Kγ (p120γ)(h) = PI3Kγ (p120γ)(h) (Homo sapiens, UniProt P48736); assay: Assay for phosphatidylinositol 3-kinase gamma (PI3Kγ) activity, PI3K-HTRF kit; settings: TR-FRET; enzyme 1.45 μg/ml, 10 μM PIP2, 10 μM ATP
Method in brief: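 Recombinant PI3Kγ (1.45 μg/ml final) preincubated ~10 min with compound, then reacted with 10 μM PIP2 and 10 μM ATP for 90 min at room temperature. PIP3 detected by HTRF (biotin-PIP3/Eu-PH domain/APC), 665/620 nm ratio after 6 h; IC50 from inhibition relative to controls.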

Sequence of PI3Kα (p110α/p85α)(h) (P42336 whole entry): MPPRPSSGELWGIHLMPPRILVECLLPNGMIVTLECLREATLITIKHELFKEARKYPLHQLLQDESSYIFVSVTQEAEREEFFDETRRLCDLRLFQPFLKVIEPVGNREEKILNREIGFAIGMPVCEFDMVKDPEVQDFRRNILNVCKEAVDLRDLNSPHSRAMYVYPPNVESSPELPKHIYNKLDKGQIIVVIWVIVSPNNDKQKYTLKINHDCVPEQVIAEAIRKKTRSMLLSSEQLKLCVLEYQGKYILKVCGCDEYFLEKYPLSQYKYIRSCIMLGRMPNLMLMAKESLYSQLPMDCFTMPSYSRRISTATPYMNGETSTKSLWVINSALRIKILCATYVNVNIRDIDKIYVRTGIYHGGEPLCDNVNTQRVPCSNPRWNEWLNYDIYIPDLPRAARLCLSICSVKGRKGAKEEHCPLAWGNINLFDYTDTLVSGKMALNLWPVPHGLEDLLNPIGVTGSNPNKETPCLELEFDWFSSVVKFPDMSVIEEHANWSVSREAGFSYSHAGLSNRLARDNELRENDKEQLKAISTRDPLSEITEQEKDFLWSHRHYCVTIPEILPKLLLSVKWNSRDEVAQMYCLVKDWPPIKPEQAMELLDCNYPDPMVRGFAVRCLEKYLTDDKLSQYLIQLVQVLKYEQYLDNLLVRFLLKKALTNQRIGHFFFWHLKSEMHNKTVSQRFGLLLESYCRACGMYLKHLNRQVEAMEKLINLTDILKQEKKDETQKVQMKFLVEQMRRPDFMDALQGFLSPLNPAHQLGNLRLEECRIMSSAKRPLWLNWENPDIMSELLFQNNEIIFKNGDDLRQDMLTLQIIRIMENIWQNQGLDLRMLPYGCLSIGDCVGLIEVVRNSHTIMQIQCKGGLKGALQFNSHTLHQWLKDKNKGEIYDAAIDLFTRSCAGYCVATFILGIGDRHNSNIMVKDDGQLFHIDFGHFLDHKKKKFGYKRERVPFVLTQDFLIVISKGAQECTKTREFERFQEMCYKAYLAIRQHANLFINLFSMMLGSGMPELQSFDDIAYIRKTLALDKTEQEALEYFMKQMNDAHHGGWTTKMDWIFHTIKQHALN
Sequence of PI3Kα (p110α/p85α)(h) (P27986 whole entry partner): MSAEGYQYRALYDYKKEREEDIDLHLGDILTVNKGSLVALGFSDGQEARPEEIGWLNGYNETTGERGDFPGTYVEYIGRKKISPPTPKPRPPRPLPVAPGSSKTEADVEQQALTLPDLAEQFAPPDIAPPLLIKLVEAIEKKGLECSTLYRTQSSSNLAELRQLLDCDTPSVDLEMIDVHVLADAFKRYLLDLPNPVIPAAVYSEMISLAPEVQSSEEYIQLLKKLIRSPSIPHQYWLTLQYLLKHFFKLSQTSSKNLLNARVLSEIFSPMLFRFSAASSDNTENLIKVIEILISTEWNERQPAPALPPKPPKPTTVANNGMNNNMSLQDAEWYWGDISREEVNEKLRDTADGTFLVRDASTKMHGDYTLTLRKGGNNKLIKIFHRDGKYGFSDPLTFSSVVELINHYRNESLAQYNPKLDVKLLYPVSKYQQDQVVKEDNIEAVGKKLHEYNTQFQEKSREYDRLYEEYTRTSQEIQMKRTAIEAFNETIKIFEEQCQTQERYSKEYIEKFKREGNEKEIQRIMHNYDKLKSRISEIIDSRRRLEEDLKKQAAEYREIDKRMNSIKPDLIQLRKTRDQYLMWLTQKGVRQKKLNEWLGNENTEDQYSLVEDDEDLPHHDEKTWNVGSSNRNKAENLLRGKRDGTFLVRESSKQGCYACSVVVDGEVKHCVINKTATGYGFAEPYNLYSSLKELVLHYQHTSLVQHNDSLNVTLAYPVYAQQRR
Sequence of PI3Kδ (p110δ/p85α)(h) (O00329 whole entry): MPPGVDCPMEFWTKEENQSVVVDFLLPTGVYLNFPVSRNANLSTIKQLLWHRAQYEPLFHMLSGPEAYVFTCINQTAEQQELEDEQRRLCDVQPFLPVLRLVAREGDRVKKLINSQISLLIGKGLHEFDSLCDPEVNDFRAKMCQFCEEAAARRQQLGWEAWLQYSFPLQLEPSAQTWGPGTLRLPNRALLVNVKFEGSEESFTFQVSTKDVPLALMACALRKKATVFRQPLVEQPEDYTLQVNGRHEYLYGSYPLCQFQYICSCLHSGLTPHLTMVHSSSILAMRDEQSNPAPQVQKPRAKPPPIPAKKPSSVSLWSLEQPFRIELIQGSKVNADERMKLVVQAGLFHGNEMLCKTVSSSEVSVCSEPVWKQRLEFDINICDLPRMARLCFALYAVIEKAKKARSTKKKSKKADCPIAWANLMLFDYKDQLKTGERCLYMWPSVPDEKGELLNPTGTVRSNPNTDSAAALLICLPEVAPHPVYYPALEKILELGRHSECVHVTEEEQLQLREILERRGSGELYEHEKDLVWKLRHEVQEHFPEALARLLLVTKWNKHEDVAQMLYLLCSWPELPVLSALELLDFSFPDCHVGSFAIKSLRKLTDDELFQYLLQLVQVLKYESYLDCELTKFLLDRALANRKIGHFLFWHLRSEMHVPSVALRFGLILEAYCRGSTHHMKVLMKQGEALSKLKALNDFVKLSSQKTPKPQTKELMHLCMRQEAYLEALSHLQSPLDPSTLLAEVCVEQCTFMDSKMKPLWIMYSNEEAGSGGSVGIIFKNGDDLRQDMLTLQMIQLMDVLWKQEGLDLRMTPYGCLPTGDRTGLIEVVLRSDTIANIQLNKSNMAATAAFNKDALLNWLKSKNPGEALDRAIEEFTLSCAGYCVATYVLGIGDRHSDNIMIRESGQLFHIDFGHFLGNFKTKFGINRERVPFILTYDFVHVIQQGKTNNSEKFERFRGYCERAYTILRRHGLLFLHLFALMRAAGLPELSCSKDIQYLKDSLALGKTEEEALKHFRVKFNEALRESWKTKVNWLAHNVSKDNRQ
Sequence of PI3Kδ (p110δ/p85α)(h) (P27986 whole entry partner): as the sequence (P27986 whole entry partner) above
Sequence of PI3Kγ (p120γ)(h) (P48736 whole entry, the tested form may be a part): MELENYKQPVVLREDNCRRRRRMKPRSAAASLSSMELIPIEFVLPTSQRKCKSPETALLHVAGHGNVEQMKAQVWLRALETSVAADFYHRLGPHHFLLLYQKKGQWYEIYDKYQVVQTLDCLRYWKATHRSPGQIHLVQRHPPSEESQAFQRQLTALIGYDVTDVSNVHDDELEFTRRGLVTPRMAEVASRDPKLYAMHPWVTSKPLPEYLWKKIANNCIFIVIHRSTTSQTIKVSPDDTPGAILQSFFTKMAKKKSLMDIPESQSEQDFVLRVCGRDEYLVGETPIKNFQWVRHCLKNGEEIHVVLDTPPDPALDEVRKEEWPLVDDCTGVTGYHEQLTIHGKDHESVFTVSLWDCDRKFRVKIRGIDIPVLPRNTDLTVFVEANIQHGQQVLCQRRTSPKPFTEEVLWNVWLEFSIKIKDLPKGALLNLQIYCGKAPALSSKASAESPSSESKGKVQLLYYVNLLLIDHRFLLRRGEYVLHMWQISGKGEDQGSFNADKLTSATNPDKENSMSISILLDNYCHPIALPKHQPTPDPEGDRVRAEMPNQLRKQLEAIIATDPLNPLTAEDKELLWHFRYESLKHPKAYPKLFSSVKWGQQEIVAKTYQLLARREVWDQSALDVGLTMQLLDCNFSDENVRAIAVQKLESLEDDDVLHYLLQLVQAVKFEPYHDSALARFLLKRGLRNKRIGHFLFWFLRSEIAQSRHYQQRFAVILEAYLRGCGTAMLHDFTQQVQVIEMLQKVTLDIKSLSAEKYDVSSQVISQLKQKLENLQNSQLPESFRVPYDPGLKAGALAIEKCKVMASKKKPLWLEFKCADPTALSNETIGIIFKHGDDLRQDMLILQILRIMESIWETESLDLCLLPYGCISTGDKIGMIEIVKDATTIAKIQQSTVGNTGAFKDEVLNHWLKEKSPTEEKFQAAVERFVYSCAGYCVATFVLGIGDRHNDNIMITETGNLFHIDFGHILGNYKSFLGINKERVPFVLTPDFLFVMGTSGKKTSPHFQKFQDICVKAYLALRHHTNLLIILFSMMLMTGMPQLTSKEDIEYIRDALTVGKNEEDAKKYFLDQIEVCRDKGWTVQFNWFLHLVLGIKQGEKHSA
Sequence of PI3K β (p110β/p85α)(h) (P42338 whole entry): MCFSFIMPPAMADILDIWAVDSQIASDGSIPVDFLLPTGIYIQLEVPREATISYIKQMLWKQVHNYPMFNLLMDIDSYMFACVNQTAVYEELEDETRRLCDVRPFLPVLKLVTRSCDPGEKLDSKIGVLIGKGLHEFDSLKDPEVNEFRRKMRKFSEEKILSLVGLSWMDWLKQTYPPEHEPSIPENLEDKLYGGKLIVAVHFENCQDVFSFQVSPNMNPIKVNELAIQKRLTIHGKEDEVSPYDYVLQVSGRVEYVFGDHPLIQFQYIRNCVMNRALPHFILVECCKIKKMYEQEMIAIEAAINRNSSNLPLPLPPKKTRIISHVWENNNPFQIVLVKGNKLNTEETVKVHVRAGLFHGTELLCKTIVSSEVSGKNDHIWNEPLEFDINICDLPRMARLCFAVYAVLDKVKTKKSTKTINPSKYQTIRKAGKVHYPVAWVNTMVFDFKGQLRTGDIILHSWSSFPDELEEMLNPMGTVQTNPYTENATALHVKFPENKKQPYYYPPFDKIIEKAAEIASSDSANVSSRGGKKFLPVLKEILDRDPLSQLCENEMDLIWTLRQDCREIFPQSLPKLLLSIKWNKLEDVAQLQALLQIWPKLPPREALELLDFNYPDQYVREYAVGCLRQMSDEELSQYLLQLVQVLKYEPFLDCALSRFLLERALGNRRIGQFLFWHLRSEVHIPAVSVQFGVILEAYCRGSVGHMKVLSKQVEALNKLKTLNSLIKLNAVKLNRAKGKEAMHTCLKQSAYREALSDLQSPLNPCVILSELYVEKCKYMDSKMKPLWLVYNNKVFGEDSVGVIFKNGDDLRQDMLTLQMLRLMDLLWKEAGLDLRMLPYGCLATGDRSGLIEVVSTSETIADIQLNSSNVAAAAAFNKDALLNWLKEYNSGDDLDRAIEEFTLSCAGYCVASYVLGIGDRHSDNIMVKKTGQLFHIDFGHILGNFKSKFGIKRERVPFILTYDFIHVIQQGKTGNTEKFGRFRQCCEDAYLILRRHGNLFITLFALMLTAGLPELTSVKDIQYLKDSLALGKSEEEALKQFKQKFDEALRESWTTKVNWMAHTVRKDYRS
Sequence of PI3K β (p110β/p85α)(h) (P27986 whole entry partner): as the sequence (P27986 whole entry partner) above

Row | Structure (SMILES) | IC50 (PI3K β (p110β/p85α)(h)) [nM] | IC50 (PI3Kα (p110α/p85α)(h)) [nM] | IC50 (PI3Kδ (p110δ/p85α)(h)) [nM] | IC50 (PI3Kγ (p120γ)(h)) [nM]
1 | Cn1cc(-c2cncc3cc(/C=C4\SC(=O)NC4=O)oc23)cn1 [Example 12, (Z)-5-[{7-(1-Methyl-1H-pyrazol-4-yl)furo[3,2-c]pyridin-2-yl}methylene]thiazolidine-2,4-dione] | 572 | 7 | > 10000 | 28
2 | CS(=O)(=O)c1c(F)cc(-c2cncc3cc(/C=C4\SC(=S)NC4=O)oc23)cc1F [Example 332, (Z)-5-([7-{3,5-Difluoro-4-(methylsulfonyl)phenyl}furo[3,2-c]pyridin-2-yl]methylene)-2-thioxothiazolidin-4-one] | > 10000 | 10 | 9300 | 19
3 | COC(=O)c1cccc(C#Cc2cncc3cc(/C=C4\SC(=S)NC4=O)oc23)c1 [Example 569, (Z)-Methyl 3-([2-{(4-oxo-2-thioxothiazolidin-5-ylidene)methyl}furo[3,2-c]pyridin-7-yl]ethynyl)benzoate] | 5920 | 1 | 493 | 16
4 | Cc1cc(-c2cncc3cc(/C=C4\SC(=O)NC4=O)oc23)ccc1S(=O)(=O)NC(C)(C)C [Example 310, (Z)—N-tert-Butyl-4-[2-{(2,4-dioxothiazolidin-5-ylidene)methyl}furo[3,2-c]pyridin-7-yl]-2-methylbenzenesulfonamide] | 1940 | 11 | 220 | 12
